# Experimental data taken from patent US12077503B2, “Substituted cyclic amides and their use as herbicides” (FMC CORPORATION, priority 2015, dated 2024).
# What was measured:
# Type in all cases: in vivo
# [1] = test system: ryegrass, Italian (Italian ryegrass, Lolium multiflorum); assay: Test A postemergence; details: Lolium multiflorum, post-emergence, 240 h
# Method in brief: (§1)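 Ratings of 0 (no effect) to 100 (complete control) come from visual comparison with untreated controls roughly 10 d after treatment. Test chemicals, formulated in a non-phytotoxic solvent mixture with surfactant, were applied either as a preemergence directed soil spray on seeded soil or postemergence to one- to two-leaf plants 2 to 10 cm tall.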
# [2] = test system: ragweed (common ragweed, Ambrosia elatior); assay: Test A postemergence; details: Ambrosia artemisiifolia, post-emergence, 240 h
# Method in brief: as §1
# [3] = test system: wheat (Triticum aestivum); assay: Test A postemergence; details: Triticum aestivum, post-emergence, 240 h
# Method in brief: as §1
# Kochia (Kochia scoparia) [4] = assay: Test A postemergence; details: Bassia scoparia, post-emergence, 240 h
# Method in brief: as §1
# [5] = test system: blackgrass (Alopecurus myosuroides); assay: Test A postemergence; details: Alopecurus myosuroides, post-emergence, 240 h
# Method in brief: as §1
# [6] = test system: barnyardgrass (Echinochloa crus-galli); assay: Test A postemergence; details: Echinochloa crus-galli, post-emergence, 240 h
# Method in brief: as §1
# [7] = test system: Galium (catchweed bedstraw, Galium aparine); assay: Test A postemergence; details: Galium, post-emergence, 240 h
# Method in brief: as §1
# [8] = test system: giant foxtail (Setaria faberii); assay: Test A postemergence; details: Setaria faberi, post-emergence, 240 h
# Method in brief: as §1
# [9] = test system: pigweed (Amaranthus retroflexus); assay: Test A postemergence; details: Amaranthus retroflexus, post-emergence, 240 h
# Method in brief: as §1
# corn (Zea mays) = assay: Test A postemergence; details: Zea mays, post-emergence, 240 h
# Method in brief: as §1
# [10] = test system: ducksalad (Heteranthera limosa); assay: Test B flooded paddy test; details: Heteranthera limosa, 250 g ai/ha, Flood; 0 to 100 scale where 0 is no effect and 100 is complete control; read-out: Ducksalad plant response rating
# Method in brief: (§2)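 Compound goes directly into floodwater once pots are flooded 3 cm above soil, targeting plants at two leaves; the water depth is then held for the test duration. Plants sit 13–15 d in a greenhouse and are rated visually, 100 denoting complete control.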
# [11] = test system: barnyardgrass (Echinochloa crus-galli); assay: Test B flooded paddy test; details: Echinochloa crus-galli, 250 g ai/ha, Flood; 0 to 100 scale where 0 is no effect and 100 is complete control; read-out: Barnyardgrass plant response rating
# Method in brief: as §2
# rice (Oryra sativa) = assay: Test B flooded paddy test; details: Oryza sativa, 250 g ai/ha, Flood; 0 to 100 scale where 0 is no effect and 100 is complete control; read-out: Rice plant response rating
# Method in brief: as §2
# [12] = test system: sedge, umbrella (small-flower umbrella sedge, Cyperus difformis); assay: Test B flooded paddy test; details: Cyperus difformis, 250 g ai/ha, Flood; 0 to 100 scale where 0 is no effect and 100 is complete control; read-out: Sedge, Umbrella plant response rating
# Method in brief: as §2
# [13] = test system: ryegrass, Italian (Italian ryegrass, Lolium multiflorum); assay: Test A preemergence; details: Lolium multiflorum, pre-emergence, 240 h, 0 to 100 scale where 0 is no effect and 100 is complete control, read-out: Ryegrass, Italian plant response rating
# Method in brief: as §1
# [14] = test system: ragweed (common ragweed, Ambrosia elatior); assay: Test A preemergence; details: Ambrosia artemisiifolia, pre-emergence, 240 h, 0 to 100 scale where 0 is no effect and 100 is complete control, read-out: Ragweed plant response rating
# Method in brief: as §1
# Kochia (Kochia scoparia) [15] = assay: Test A preemergence; details: Bassia scoparia, pre-emergence, 240 h, 0 to 100 scale where 0 is no effect and 100 is complete control, read-out: Kochia plant response rating
# Method in brief: as §1
# [16] = test system: barnyardgrass (Echinochloa crus-galli); assay: Test A preemergence; details: Echinochloa crus-galli, pre-emergence, 240 h, 0 to 100 scale where 0 is no effect and 100 is complete control, read-out: Barnyardgrass plant response rating
# Method in brief: as §1
# [17] = test system: giant foxtail (Setaria faberii); assay: Test A preemergence; details: Setaria faberi, pre-emergence, 240 h, 0 to 100 scale where 0 is no effect and 100 is complete control, read-out: Foxtail, Giant plant response rating
# Method in brief: as §1
# [18] = test system: pigweed (Amaranthus retroflexus); assay: Test A preemergence; details: Amaranthus retroflexus, pre-emergence, 240 h, 0 to 100 scale where 0 is no effect and 100 is complete control, read-out: Pigweed plant response rating
# [19] = 125 g ai/ha, preemergence, approx. 10 d
smiles,measurement,setting,value
O=C(Nc1ccc(F)c(F)c1F)[C@H]1C(=O)N(O)CC[C@@H]1c1ccc(C(F)(F)F)cc1 [Compound 1108],pest or weed control at 125 g/ha,"[1]; 125 g ai/ha, postemergence, visual injury on 0 to 100 scale (0 no effect, 100 complete control), approx. 10 d, read-out: Ryegrass, Italian plant response rating",0%
same,pest or weed control at 31 g/ha,"[1]; Postemergence, 31 g ai/ha, visual injury after approx. 10 d, 0 to 100 scale, 0 no effect, 100 complete control, read-out: Plant response rating, Ryegrass, Italian",0%
same,pest or weed control at 125 g/ha,"[2]; 125 g ai/ha, postemergence, visual injury on 0 to 100 scale (0 no effect, 100 complete control), approx. 10 d, read-out: Ragweed plant response rating",0%
same,pest or weed control at 31 g/ha,"[2]; Postemergence, 31 g ai/ha, visual injury after approx. 10 d, 0 to 100 scale, 0 no effect, 100 complete control, read-out: Plant response rating, Ragweed",0%
same,plant injury at 125 g/ha,"[3]; 125 g ai/ha, postemergence, visual injury on 0 to 100 scale (0 no effect, 100 complete control), approx. 10 d, read-out: Wheat plant response rating",0%
same,plant injury at 31 g/ha,"[3]; Postemergence, 31 g ai/ha, visual injury after approx. 10 d, 0 to 100 scale, 0 no effect, 100 complete control, read-out: Plant response rating, Wheat",0%
same,pest or weed control at 125 g/ha,"Kochia (Kochia scoparia) [4]; 125 g ai/ha, postemergence, visual injury on 0 to 100 scale (0 no effect, 100 complete control), approx. 10 d, read-out: Kochia plant response rating",0%
same,pest or weed control at 31 g/ha,"Kochia (Kochia scoparia) [4]; Postemergence, 31 g ai/ha, visual injury after approx. 10 d, 0 to 100 scale, 0 no effect, 100 complete control, read-out: Plant response rating, Kochia",0%
same,pest or weed control at 125 g/ha,"[5]; 125 g ai/ha, postemergence, visual injury on 0 to 100 scale (0 no effect, 100 complete control), approx. 10 d, read-out: Blackgrass plant response rating",0%
same,pest or weed control at 31 g/ha,"[5]; Postemergence, 31 g ai/ha, visual injury after approx. 10 d, 0 to 100 scale, 0 no effect, 100 complete control, read-out: Plant response rating, Blackgrass",0%
same,pest or weed control at 125 g/ha,"[6]; 125 g ai/ha, postemergence, visual injury on 0 to 100 scale (0 no effect, 100 complete control), approx. 10 d, read-out: Barnyardgrass plant response rating",0%
same,pest or weed control at 31 g/ha,"[6]; Postemergence, 31 g ai/ha, visual injury after approx. 10 d, 0 to 100 scale, 0 no effect, 100 complete control, read-out: Plant response rating, Barnyardgrass",0%
same,pest or weed control at 125 g/ha,"[7]; 125 g ai/ha, postemergence, visual injury on 0 to 100 scale (0 no effect, 100 complete control), approx. 10 d, read-out: Galium plant response rating",0%
same,pest or weed control at 31 g/ha,"[7]; Postemergence, 31 g ai/ha, visual injury after approx. 10 d, 0 to 100 scale, 0 no effect, 100 complete control, read-out: Plant response rating, Galium",0%
same,pest or weed control at 125 g/ha,"[8]; 125 g ai/ha, postemergence, visual injury on 0 to 100 scale (0 no effect, 100 complete control), approx. 10 d, read-out: Foxtail, Giant plant response rating",0%
same,pest or weed control at 31 g/ha,"[8]; Postemergence, 31 g ai/ha, visual injury after approx. 10 d, 0 to 100 scale, 0 no effect, 100 complete control, read-out: Plant response rating, Foxtail, Giant",0%
same,pest or weed control at 125 g/ha,"[9]; 125 g ai/ha, postemergence, visual injury on 0 to 100 scale (0 no effect, 100 complete control), approx. 10 d, read-out: Pigweed plant response rating",0%
same,pest or weed control at 31 g/ha,"[9]; Postemergence, 31 g ai/ha, visual injury after approx. 10 d, 0 to 100 scale, 0 no effect, 100 complete control, read-out: Plant response rating, Pigweed",0%
same,plant injury at 125 g/ha,"corn (Zea mays); 125 g ai/ha, postemergence, visual injury on 0 to 100 scale (0 no effect, 100 complete control), approx. 10 d, read-out: Corn plant response rating",0%
same,"Corn plant response rating (crop injury, 0 = no effect, 100 = complete kill) at 31 g/ha","corn (Zea mays); Postemergence, 31 g ai/ha, visual injury after approx. 10 d, 0 to 100 scale, 0 no effect, 100 complete control",0%
same,pest or weed control at 250 g/ha,[10],85%
same,pest or weed control at 250 g/ha,[11],40%
same,pest or weed control at 250 g/ha,rice (Oryra sativa),20%
same,pest or weed control at 250 g/ha,[12],75%
same,pest or weed control at 31 g/ha,"[13]; 31 g ai/ha, Preemergence",0%
same,pest or weed control at 125 g/ha,[13]; [19],0%
same,pest or weed control at 31 g/ha,"[14]; 31 g ai/ha, Preemergence",0%
same,pest or weed control at 125 g/ha,[14]; [19],0%
same,pest or weed control at 31 g/ha,"Kochia (Kochia scoparia) [15]; 31 g ai/ha, Preemergence",0%
same,pest or weed control at 125 g/ha,Kochia (Kochia scoparia) [15]; [19],0%
same,pest or weed control at 31 g/ha,"[16]; 31 g ai/ha, Preemergence",0%
same,pest or weed control at 125 g/ha,[16]; [19],0%
same,pest or weed control at 31 g/ha,"[17]; 31 g ai/ha, Preemergence",0%
same,pest or weed control at 125 g/ha,[17]; [19],0%
same,pest or weed control at 31 g/ha,"[18]; 31 g ai/ha, Preemergence",0%
same,pest or weed control at 125 g/ha,[18]; [19],0%
